{"source": "patent US9339463B2", "about": "“Micronized opioid compositions having a specific particle size distribution” (priority 2007, dated 2016)", "format_in_all_cases": "physicochemical", "key": {"[1]": {"assay": "Particle size distribution by laser diffraction (Malvern Mastersizer 2000), oxycodone base"}, "[2]": {"assay": "Particle size by optical microscopy, number % undersize", "settings": "mean diameter", "method": "As a secondary analytical method, the micronized and the non-micronized oxycodone analyzed by laser diffraction with results shown in Table 1, were analyzed by optical microscopy to evaluate particle size and the results are shown in Table 2. Sample aliquots (˜50 mg for micronized and ˜225 mg for non-micronized) were dispersed in 10 ml of sunflower oil and viewed on a Nikon microscope equipped with a 10× objective. Particle size (mean diameter) was determined using Image Pro® Plus software and expressed as a number % undersize. The particle size values determined by optical microscopy as shown in Table 2 are consistent with the laser diffraction particle size data shown in Table 1."}, "[3]": {"assay": "Chemical stability on storage: assay and impurities", "method": "Samples of Example 2 and additional samples comprising micronized and non-micronized oxycodone useful for exemplary dosage forms are tested for their chemical stability and physical stability. Based on a comparison of stability data from micronized and non-micronized samples stored at both 25° C./60% RH and 40 C.°/75% RH, no differences are observed in the impurity profile through three months of study as shown in Tables 4 and 5 for exemplary lots. The impurities analyzed include (HOXY), 14-Hydroxycodeinone; (DHOXYN), 7,8-Dihydro-8,14-Dihydroxycodeinone; (DHOXY), 7,8-Dihydro-14-hydroxycodeine; (OXYE), Oxycodone ethylenolate; (OXYN), 1-Hydroxyoxycodone and Oxycodone N-oxide. Most of the impurities are found to be below the limit of quantitation (LOQ), except for HOXY and DHOXYN which were unchanged at 0.1%. […] The solid state stability of the micronized oxycodone is monitored for particle size, XRPD, DSC, and microscopy as shown in Table 6."}, "[4]": {"settings": "Table 1 analysis, lot 2 in duplicate"}, "[5]": {"settings": "additional laser diffraction analysis, Table 3"}, "[6]": {"settings": "Time 0, listed as Non-micronized Oxycodone Free Base"}}, "data": [{"smiles": "COc1ccc2c3c1O[C@H]1C(=O)CC[C@@]4(O)[C@@H](C2)N(C)CC[C@]314", "note": "[Non-micronized, oxycodone]", "values": [{"measurement": "Particle size (Dv10)", "setting": "[1]; [4]", "value": 5.7, "unit": "μ"}, {"measurement": "Particle size (Dv50)", "setting": "[1]; [4]", "value": 20.5, "unit": "μ"}, {"measurement": "Particle size (Dv90)", "setting": "[1]; [4]", "value": 55.5, "unit": "μ"}, {"measurement": "Particle size (Dv90)", "setting": "[1]; Table 1 analysis, lot 2 in duplicate, listed as non-micronized sample", "value": 56, "unit": "μ"}, {"measurement": "Particle size (Dv10)", "setting": "[1]; [5]", "value": 4.9, "unit": "μ"}, {"measurement": "Particle size (Dv50)", "setting": "[1]; [5]", "value": 20.1, "unit": "μ"}, {"measurement": "Particle size (Dv90)", "setting": "[1]; [5]", "value": 50.9, "unit": "μ"}, {"measurement": "Particle size (Dv90)", "setting": "[1]; additional laser diffraction analysis, Table 3, listed as non-micronized", "value": 51, "unit": "μ"}, {"measurement": "mean particle size", "setting": "[1]; oxycodone base before micronization", "value": 51, "unit": "μ"}, {"measurement": "% ≦ 1μ", "setting": "[2]", "value": 21.4, "unit": "%"}, {"measurement": "% ≦ 5μ", "setting": "[2]", "value": 50.7, "unit": "%"}, {"measurement": "% ≦ 10μ", "setting": "[2]", "value": 69.1, "unit": "%"}, {"measurement": "1-HydroxyOXY", "setting": "[3]; 25° C./60% RH, 1 mo", "value": "<LOQ"}, {"measurement": "DHOXY (7,8-Dihydro-14-hydroxycodeine)", "setting": "[3]; 25° C./60% RH, 1 mo", "value": "<LOQ"}, {"measurement": "DHOXYN (7,8-Dihydro-8,14-Dihydroxycodeinone)", "setting": "[3]; 25° C./60% RH, 1 mo", "value": 0.10, "unit": "%"}, {"measurement": "HOXY (14-Hydroxycodeinone)", "setting": "[3]; 25° C./60% RH, 1 mo", "value": 0.08, "unit": "%"}, {"measurement": "OXYE (Oxycodone ethylenolate)", "setting": "[3]; 25° C./60% RH, 1 mo", "value": "<LOQ"}, {"measurement": "OXYN", "setting": "[3]; 25° C./60% RH, 1 mo", "value": "<LOQ"}, {"measurement": "Other (impurities; Table 5: >0.05%)", "setting": "[3]; 25° C./60% RH, 1 mo", "value": "<LOQ"}, {"measurement": "Total impurities", "setting": "[3]; 25° C./60% RH, 1 mo", "value": 0.18, "unit": "%"}, {"measurement": "Assay", "setting": "[3]; 25° C./60% RH, 1 mo, listed as Non-micronized Oxycodone Free Base", "value": 99.6, "unit": "%"}, {"measurement": "1-HydroxyOXY", "setting": "[3]; 25° C./60% RH, 3 mo", "value": "<LOQ"}, {"measurement": "DHOXY (7,8-Dihydro-14-hydroxycodeine)", "setting": "[3]; 25° C./60% RH, 3 mo", "value": "<LOQ"}, {"measurement": "DHOXYN (7,8-Dihydro-8,14-Dihydroxycodeinone)", "setting": "[3]; 25° C./60% RH, 3 mo", "value": 0.10, "unit": "%"}, {"measurement": "HOXY (14-Hydroxycodeinone)", "setting": "[3]; 25° C./60% RH, 3 mo", "value": 0.08, "unit": "%"}, {"measurement": "OXYE (Oxycodone ethylenolate)", "setting": "[3]; 25° C./60% RH, 3 mo", "value": "<LOQ"}, {"measurement": "OXYN", "setting": "[3]; 25° C./60% RH, 3 mo", "value": "<LOQ"}, {"measurement": "Other (impurities; Table 5: >0.05%)", "setting": "[3]; 25° C./60% RH, 3 mo", "value": "<LOQ"}, {"measurement": "Total impurities", "setting": "[3]; 25° C./60% RH, 3 mo", "value": 0.18, "unit": "%"}, {"measurement": "Assay", "setting": "[3]; 25° C./60% RH, 3 mo, listed as Non-micronized Oxycodone Free Base", "value": 99.6, "unit": "%"}, {"measurement": "1-HydroxyOXY", "setting": "[3]; 40° C./75% RH, 1 mo", "value": "<LOQ"}, {"measurement": "DHOXY (7,8-Dihydro-14-hydroxycodeine)", "setting": "[3]; 40° C./75% RH, 1 mo", "value": "<LOQ"}, {"measurement": "DHOXYN (7,8-Dihydro-8,14-Dihydroxycodeinone)", "setting": "[3]; 40° C./75% RH, 1 mo", "value": 0.10, "unit": "%"}, {"measurement": "HOXY (14-Hydroxycodeinone)", "setting": "[3]; 40° C./75% RH, 1 mo", "value": 0.08, "unit": "%"}, {"measurement": "OXYE (Oxycodone ethylenolate)", "setting": "[3]; 40° C./75% RH, 1 mo", "value": "<LOQ"}, {"measurement": "OXYN", "setting": "[3]; 40° C./75% RH, 1 mo", "value": "<LOQ"}, {"measurement": "Total impurities", "setting": "[3]; 40° C./75% RH, 1 mo", "value": 0.18, "unit": "%"}, {"measurement": "Assay", "setting": "[3]; 40° C./75% RH, 1 mo, listed as Non-micronized Oxycodone Free Base", "value": 99.6, "unit": "%"}, {"measurement": "1-HydroxyOXY", "setting": "[3]; 40° C./75% RH, 3 mo", "value": "<LOQ"}, {"measurement": "DHOXY (7,8-Dihydro-14-hydroxycodeine)", "setting": "[3]; 40° C./75% RH, 3 mo", "value": "<LOQ"}, {"measurement": "DHOXYN (7,8-Dihydro-8,14-Dihydroxycodeinone)", "setting": "[3]; 40° C./75% RH, 3 mo", "value": 0.10, "unit": "%"}, {"measurement": "HOXY (14-Hydroxycodeinone)", "setting": "[3]; 40° C./75% RH, 3 mo", "value": 0.08, "unit": "%"}, {"measurement": "OXYE (Oxycodone ethylenolate)", "setting": "[3]; 40° C./75% RH, 3 mo", "value": "<LOQ"}, {"measurement": "OXYN", "setting": "[3]; 40° C./75% RH, 3 mo", "value": "<LOQ"}, {"measurement": "Other (impurities; Table 5: >0.05%)", "setting": "[3]; 40° C./75% RH, 3 mo", "value": "<LOQ"}, {"measurement": "Total impurities", "setting": "[3]; 40° C./75% RH, 3 mo", "value": 0.18, "unit": "%"}, {"measurement": "Assay", "setting": "[3]; 40° C./75% RH, 3 mo, listed as Non-micronized Oxycodone Free Base", "value": 99.5, "unit": "%"}, {"measurement": "1-HydroxyOXY", "setting": "[3]; Time 0", "value": "<LOQ"}, {"measurement": "DHOXY (7,8-Dihydro-14-hydroxycodeine)", "setting": "[3]; Time 0", "value": "<LOQ"}, {"measurement": "OXYE (Oxycodone ethylenolate)", "setting": "[3]; Time 0", "value": "<LOQ"}, {"measurement": "OXYN", "setting": "[3]; Time 0", "value": "<LOQ"}, {"measurement": "Other (impurities; Table 5: >0.05%)", "setting": "[3]; Time 0", "value": "<LOQ"}, {"measurement": "Total impurities", "setting": "[3]; Time 0", "value": 0.18, "unit": "%"}, {"measurement": "Assay", "setting": "[3]; [6]", "value": 101.1, "unit": "%"}, {"measurement": "DHOXYN (7,8-Dihydro-8,14-Dihydroxycodeinone)", "setting": "[3]; [6]", "value": 0.10, "unit": "%"}, {"measurement": "HOXY (14-Hydroxycodeinone)", "setting": "[3]; [6]", "value": 0.08, "unit": "%"}]}]}
